Laboratory results published in PubChem BioAssay (NCI).
Where “and” joins values, the source holds several entries; their conditions need not be identical. Equal entries are not always repeated.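 Grown in 96-well plates, cells were treated for 48 hours with each compound at five concentrations. Insufficient inhibition: endpoint recorded as highest concentration tested. Here, GI50 denotes the concentration required for 50% inhibition of growth. Definition used: TGI = concentration required for complete inhibition of growth.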

Tests used:
Assay in all cases: NCI-60 cell line screen, 48 h
NCI-H226 lung = tested on: NCI-H226 lung
IGROV1 ovarian = tested on: IGROV1 ovarian
KM12 colon = tested on: KM12 colon
SF-295 CNS = tested on: SF-295 CNS
HOP-92 NSCLC = tested on: HOP-92 NSCLC
PC-3 prostate = tested on: PC-3 prostate
HL-60(TB) leukemia = tested on: HL-60(TB) leukemia
NCI/ADR-RES ovarian = tested on: NCI/ADR-RES ovarian
A549 NSCLC = tested on: A549 NSCLC
CCRF-CEM leukemia = tested on: CCRF-CEM leukemia
NCI-H522 lung = tested on: NCI-H522 lung
SNB-75 CNS = tested on: SNB-75 CNS
U251 CNS = tested on: U251 CNS
DU-145 prostate = tested on: DU-145 prostate
EKVX NSCLC = tested on: EKVX NSCLC
MDA-MB-435 = tested on: MDA-MB-435
HCT-15 colon = tested on: HCT-15 colon
UACC-62 melanoma = tested on: UACC-62 melanoma
SNB-19 CNS = tested on: SNB-19 CNS
OVCAR-8 ovarian = tested on: OVCAR-8 ovarian
RPMI-8226 leukemia = tested on: RPMI-8226 leukemia
RXF 393 renal = tested on: RXF 393 renal
SN12C renal = tested on: SN12C renal
SF-268 CNS = tested on: SF-268 CNS
ACHN renal = tested on: ACHN renal
UO-31 renal = tested on: UO-31 renal
NCI-H460 lung = tested on: NCI-H460 lung
OVCAR-4 ovarian = tested on: OVCAR-4 ovarian
SK-MEL-28 melanoma = tested on: SK-MEL-28 melanoma
UACC-257 melanoma = tested on: UACC-257 melanoma
COLO 205 colon = tested on: COLO 205 colon
A498 renal = tested on: A498 renal
SK-MEL-2 melanoma = tested on: SK-MEL-2 melanoma
MALME-3M melanoma = tested on: MALME-3M melanoma
MDA-MB-231 breast = tested on: MDA-MB-231 breast
SF-539 CNS = tested on: SF-539 CNS
SR leukemia = tested on: SR leukemia
OVCAR-5 ovarian = tested on: OVCAR-5 ovarian
MCF7 breast = tested on: MCF7 breast
K-562 leukemia = tested on: K-562 leukemia
BT-549 breast = tested on: BT-549 breast
786-0 renal = tested on: 786-0 renal
MDA-MB-468 breast = tested on: MDA-MB-468 breast
SW-620 colon = tested on: SW-620 colon
SK-OV-3 ovarian = tested on: SK-OV-3 ovarian
HOP-62 NSCLC = tested on: HOP-62 NSCLC
M14 melanoma = tested on: M14 melanoma
MOLT-4 leukemia = tested on: MOLT-4 leukemia
NCI-H23 lung = tested on: NCI-H23 lung
SK-MEL-5 melanoma = tested on: SK-MEL-5 melanoma
LOX IMVI melanoma = tested on: LOX IMVI melanoma
T-47D breast = tested on: T-47D breast
HCC-2998 colon = tested on: HCC-2998 colon
TK-10 renal = tested on: TK-10 renal
HS 578T breast = tested on: HS 578T breast
HT29 colon = tested on: HT29 colon
HCT-116 colon = tested on: HCT-116 colon
OVCAR-3 ovarian = tested on: OVCAR-3 ovarian
CAKI-1 renal = tested on: CAKI-1 renal

## COc1cc2cc(C(=O)N3C[C@@H](CCl)c4c3cc(OC(=O)N(CCC(=O)N3CCN(C)CC3)[C@H]3CCSSC3)c3ccccc43)[nH]c2c(OC)c1OC
NCI-H226 lung
  GI50: 1570 nM and 435 nM
  TGI: 25000 nM and 4470 nM
IGROV1 ovarian
  GI50: 436 nM and 501 nM
KM12 colon
  GI50: 535 nM and 268 nM
  TGI: 1640 nM and 1050 nM
SF-295 CNS
  GI50: 113 nM and 145 nM
  TGI: 1750 nM and 545 nM
HOP-92 NSCLC
  GI50: 657 nM and 346 nM
  TGI: 2130 nM and 1830 nM
PC-3 prostate
  GI50: 480 nM and 722 nM
  TGI: 6150 nM and 6130 nM
HL-60(TB) leukemia
  GI50: 325 nM and 119 nM
  TGI: 2790 nM and 952 nM
NCI/ADR-RES ovarian
  GI50: 292 nM
  TGI: 940 nM
A549 NSCLC
  GI50: 393 nM
  TGI: 1630 nM
CCRF-CEM leukemia
  GI50: 559 nM and 219 nM
NCI-H522 lung
  GI50: 433 nM and 263 nM
  TGI: 1110 nM and 979 nM
SNB-75 CNS
  GI50: 388 nM and 181 nM
  TGI: 1080 nM and 905 nM
U251 CNS
  GI50: 299 nM and 164 nM
  TGI: 2800 nM and 423 nM
DU-145 prostate
  GI50: 113 nM and 58.5 nM
  TGI: 3390 nM and 1490 nM
EKVX NSCLC
  GI50: 365 nM and 315 nM
  TGI: 1040 nM and 1900 nM
MDA-MB-435
  GI50: 404 nM and 213 nM
  TGI: 788 nM and 529 nM
HCT-15 colon
  GI50: 271 nM and 260 nM
  TGI: 1110 nM and 1430 nM
UACC-62 melanoma
  GI50: 259 nM and 271 nM
  TGI: 587 nM and 1220 nM
SNB-19 CNS
  GI50: 258 nM and 252 nM
OVCAR-8 ovarian
  GI50: 275 nM and 186 nM
RPMI-8226 leukemia
  GI50: 477 nM and 222 nM
  TGI: 1850 nM and 1360 nM
RXF 393 renal
  GI50: 322 nM and 149 nM
  TGI: 724 nM and 297 nM
SN12C renal
  GI50: 241 nM and 286 nM
SF-268 CNS
  GI50: 403 nM and 187 nM
ACHN renal
  GI50: 83.1 nM
  TGI: 571 nM
UO-31 renal
  GI50: 333 nM and 221 nM
  TGI: 948 nM and 545 nM
NCI-H460 lung
  GI50: 99.6 nM and 55.7 nM
  TGI: 2580 nM and 341 nM
OVCAR-4 ovarian
  GI50: 513 nM and 464 nM
  TGI: 1270 nM and 4990 nM
SK-MEL-28 melanoma
  GI50: 413 nM and 293 nM
  TGI: 846 nM and 826 nM
UACC-257 melanoma
  GI50: 475 nM and 630 nM
  TGI: 1150 nM and 3710 nM
COLO 205 colon
  GI50: 354 nM and 342 nM
  TGI: 837 nM and 1510 nM
A498 renal
  GI50: 251 nM
  TGI: 541 nM
SK-MEL-2 melanoma
  GI50: 417 nM and 214 nM
  TGI: 777 nM and 381 nM
MALME-3M melanoma
  GI50: 405 nM and 280 nM
  TGI: 796 nM and 744 nM
MDA-MB-231 breast
  GI50: 516 nM and 579 nM
  TGI: 1140 nM and 8190 nM
SF-539 CNS
  GI50: 284 nM and 167 nM
  TGI: 642 nM and 409 nM
SR leukemia
  GI50: 56.7 nM and 34.2 nM
OVCAR-5 ovarian
  GI50: 560 nM
  TGI: 1750 nM
MCF7 breast
  GI50: 55.7 nM and 35.3 nM
  TGI: 652 nM and 1100 nM
K-562 leukemia
  GI50: 604 nM and 162 nM
  TGI: 25000 nM and > 100000 nM
BT-549 breast
  GI50: 361 nM and 228 nM
  TGI: 799 nM and 989 nM
786-0 renal
  GI50: 368 nM
  TGI: 1340 nM
MDA-MB-468 breast
  GI50: 167 nM
  TGI: 389 nM
SW-620 colon
  GI50: 399 nM and 221 nM
  TGI: 1900 nM and 911 nM
SK-OV-3 ovarian
  GI50: 313 nM and 262 nM
  TGI: 1310 nM and 714 nM
HOP-62 NSCLC
  GI50: 166 nM and 110 nM
  TGI: 1280 nM and 780 nM
M14 melanoma
  GI50: 317 nM and 192 nM
  TGI: 824 nM and 545 nM
MOLT-4 leukemia
  GI50: 113 nM and 89.7 nM
NCI-H23 lung
  GI50: 75.9 nM and 55.3 nM
  TGI: 358 nM and 254 nM
SK-MEL-5 melanoma
  GI50: 327 nM
  TGI: 656 nM
LOX IMVI melanoma
  GI50: 295 nM and 208 nM
  TGI: 781 nM and 891 nM
T-47D breast
  GI50: 631 nM and 696 nM
  TGI: 25000 nM and 7830 nM
HCC-2998 colon
  GI50: 154 nM and 158 nM
  TGI: 579 nM and 331 nM
TK-10 renal
  GI50: 3370 nM
  TGI: 11000 nM
HS 578T breast
  GI50: 689 nM and 1410 nM
  TGI: 3920 nM and 6080 nM
HT29 colon
  GI50: 474 nM and 270 nM
  TGI: 1730 nM and 1050 nM
HCT-116 colon
  GI50: 389 nM and 158 nM
  TGI: 3620 nM and 558 nM
OVCAR-3 ovarian
  GI50: 236 nM
  TGI: 581 nM
CAKI-1 renal
  GI50: 272 nM
  TGI: 4490 nM
